Measurements: US20260297085A1, “1 H-PYRROLO[2,3-B]PYRIDIN-4-YL]-2-OXOPYRROLIDINE-3-CARBONITRILE DERIVATIVES AS TYROSINE KINASE 2 (TYK2) INHIBITORS FOR THE TREATMENT OF INFLAMMATORY DISEASES” (BIOGEN MA INC., priority 2023, published 2026)

Tests used:
[1] = target: T1, human JAK3 kinase domain (JH1) (Homo sapiens, UniProt P52333); experiment: JH1 biochemical assay for JAK3 (ADP-Glo kinase assay, recombinant JH1 catalytic domain, JAK3-974 peptide, 4 μM ATP)
T1 construct: recombinantly generated catalytic kinase (also known as JH1) domain of human JAK1, JAK2, JAK3 and TYK2
T1 sequence (P52333 822-1111 limits assumed): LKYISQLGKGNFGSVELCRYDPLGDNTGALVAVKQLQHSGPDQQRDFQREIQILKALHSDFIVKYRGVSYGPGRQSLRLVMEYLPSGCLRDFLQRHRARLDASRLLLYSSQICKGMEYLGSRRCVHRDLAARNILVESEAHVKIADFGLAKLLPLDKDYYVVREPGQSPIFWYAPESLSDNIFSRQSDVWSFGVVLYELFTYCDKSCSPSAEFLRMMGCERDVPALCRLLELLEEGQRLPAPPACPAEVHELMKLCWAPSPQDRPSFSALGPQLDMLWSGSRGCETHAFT
In short: (§1)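 Luminescent ADP read-out after residual ATP depletion, 100 min reaction. Kinase domain concentrations were 4 nM (JAK1), 0.2 nM (JAK2), 0.3 nM (JAK3) and 2 nM (TYK2), each with 50 μM peptide. IC50 values came from 4-parameter logistic fits over 11 points, 3-fold steps, top 10 μM or 1 μM.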

[2] = target: JAK2 kinase activity on STAT5 in TF1 cells (Homo sapiens, UniProt O60674); experiment: pSTAT5 cell assay (MSD; TF1 cells, 30 ng/mL IL-3 stimulation); type: cell-based; conditions: 30 ng/mL IL-3, 15 minutes
JAK2 kinase activity on STAT5 in TF1 cells, sequence (O60674 whole entry): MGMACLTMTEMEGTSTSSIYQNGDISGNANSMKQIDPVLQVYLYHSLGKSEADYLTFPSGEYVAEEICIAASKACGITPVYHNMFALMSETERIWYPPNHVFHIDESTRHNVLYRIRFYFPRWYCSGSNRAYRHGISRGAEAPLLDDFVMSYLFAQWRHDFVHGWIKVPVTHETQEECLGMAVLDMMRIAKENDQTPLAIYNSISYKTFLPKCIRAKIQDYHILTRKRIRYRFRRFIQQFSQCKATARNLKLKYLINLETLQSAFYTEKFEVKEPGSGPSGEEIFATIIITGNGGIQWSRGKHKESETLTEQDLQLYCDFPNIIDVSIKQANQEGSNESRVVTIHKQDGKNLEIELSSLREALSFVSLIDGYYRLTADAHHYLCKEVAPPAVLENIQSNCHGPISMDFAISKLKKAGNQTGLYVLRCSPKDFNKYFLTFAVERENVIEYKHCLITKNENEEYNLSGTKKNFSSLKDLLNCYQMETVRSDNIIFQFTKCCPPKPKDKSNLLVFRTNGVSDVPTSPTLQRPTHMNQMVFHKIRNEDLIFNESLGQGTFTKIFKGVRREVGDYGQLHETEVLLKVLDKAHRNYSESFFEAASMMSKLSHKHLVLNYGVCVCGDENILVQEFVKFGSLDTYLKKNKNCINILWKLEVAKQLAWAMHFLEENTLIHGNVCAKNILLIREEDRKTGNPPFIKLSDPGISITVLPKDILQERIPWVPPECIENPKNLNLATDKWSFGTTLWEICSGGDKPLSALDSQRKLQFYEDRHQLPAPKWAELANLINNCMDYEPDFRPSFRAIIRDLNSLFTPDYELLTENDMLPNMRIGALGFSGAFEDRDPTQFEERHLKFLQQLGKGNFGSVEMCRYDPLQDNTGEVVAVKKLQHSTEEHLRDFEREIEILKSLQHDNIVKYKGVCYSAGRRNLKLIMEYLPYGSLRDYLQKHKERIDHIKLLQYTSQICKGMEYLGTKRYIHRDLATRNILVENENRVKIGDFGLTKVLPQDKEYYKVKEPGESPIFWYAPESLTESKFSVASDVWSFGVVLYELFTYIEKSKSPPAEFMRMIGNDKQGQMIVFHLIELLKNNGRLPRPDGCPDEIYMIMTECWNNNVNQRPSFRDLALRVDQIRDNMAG
Procedure: The inhibitory potency of compounds of the disclosure against the JAK2 kinase activity on STAT5 was evaluated using an MSD-platform plate-based assay format. TF1 cells natively expressing STAT5 and JAK2 were serum-starved to reduce background phosphorylation levels, then cells were treated with compounds of disclosure for 1 hour with a 10-point four-fold dilution series starting at 10 μM. Cells were then stimulated with 30 ng/mL IL-3 for 15 minutes. Cells were then lysed and pSTAT5 levels were quantitated using an MSD plate-based assay with anti-STAT5 antibodies. The data were normalized and the percent activity versus log concentration of compound was fitted with a 4-parameter logistic model to generate a curve and an IC50 value.

[3] = target: Tyk2 kinase activity on STAT4 in NK92 cells (Homo sapiens, UniProt P29597); experiment: pSTAT4 cell assay (MSD; NK92 cells, 30 ng/mL IL2 stimulation); type: cell-based; conditions: 30 ng/mL IL2, 15 minutes
Tyk2 kinase activity on STAT4 in NK92 cells, sequence (P29597 whole entry): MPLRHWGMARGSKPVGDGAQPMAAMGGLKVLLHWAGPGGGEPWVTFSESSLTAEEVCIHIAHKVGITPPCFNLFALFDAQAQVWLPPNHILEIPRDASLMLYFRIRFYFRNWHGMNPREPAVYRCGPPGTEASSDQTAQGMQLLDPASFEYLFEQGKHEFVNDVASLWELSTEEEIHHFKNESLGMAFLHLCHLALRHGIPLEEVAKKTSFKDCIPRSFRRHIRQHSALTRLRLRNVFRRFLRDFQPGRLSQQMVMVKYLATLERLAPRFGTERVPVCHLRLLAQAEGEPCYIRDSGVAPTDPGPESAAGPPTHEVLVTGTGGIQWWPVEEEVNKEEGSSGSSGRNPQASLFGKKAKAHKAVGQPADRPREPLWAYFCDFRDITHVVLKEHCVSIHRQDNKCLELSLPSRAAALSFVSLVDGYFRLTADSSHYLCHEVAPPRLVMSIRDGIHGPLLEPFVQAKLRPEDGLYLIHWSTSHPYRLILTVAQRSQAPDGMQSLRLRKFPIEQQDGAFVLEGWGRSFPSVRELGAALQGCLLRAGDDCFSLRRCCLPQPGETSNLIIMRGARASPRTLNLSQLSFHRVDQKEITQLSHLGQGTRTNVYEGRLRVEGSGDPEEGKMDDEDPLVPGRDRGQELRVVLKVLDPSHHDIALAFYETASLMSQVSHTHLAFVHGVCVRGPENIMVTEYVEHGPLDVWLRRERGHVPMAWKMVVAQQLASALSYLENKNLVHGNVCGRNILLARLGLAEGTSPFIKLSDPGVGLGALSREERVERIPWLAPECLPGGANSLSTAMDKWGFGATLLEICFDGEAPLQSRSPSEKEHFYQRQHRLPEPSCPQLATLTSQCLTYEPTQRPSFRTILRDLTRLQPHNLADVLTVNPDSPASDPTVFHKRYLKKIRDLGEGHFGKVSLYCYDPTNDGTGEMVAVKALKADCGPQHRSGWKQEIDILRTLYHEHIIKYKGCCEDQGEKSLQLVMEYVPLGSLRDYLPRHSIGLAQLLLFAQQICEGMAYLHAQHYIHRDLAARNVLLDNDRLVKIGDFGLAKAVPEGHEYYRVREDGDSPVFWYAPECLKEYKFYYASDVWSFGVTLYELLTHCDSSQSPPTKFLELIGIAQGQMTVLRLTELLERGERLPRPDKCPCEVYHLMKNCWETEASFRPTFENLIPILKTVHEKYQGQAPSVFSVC
Procedure: The inhibitory potency of compounds of the disclosure against the Tyk2 kinase activity on STAT4 was evaluated using an MSD-platform plate-based assay format. NK92 cells natively expressing STAT4 and Tyk2 were serum-starved to reduce background phosphorylation levels, then cells were treated compounds for 1 hr with a 10-point four-fold dilution series starting at 10 μM. Cells were then stimulated with 30 ng/mL IL2 for 15 minutes. Cells were lysed and […] levels were quantitated using an MSD plate-based assay with anti-STAT4 antibodies. The data were normalized and the percent activity versus log concentration of compound were fitted with a 4-parameter logistic model to generate to generate IC50 curves.

[4] = target: JAK1 kinase activity on STAT3 in TF1 cells (Homo sapiens, UniProt P23458); experiment: pSTAT3 cell assay (MSD; TF1 cells, 30 ng/mL IL-6 stimulation); type: cell-based; conditions: 30 ng/mL IL-6, 15 minutes
JAK1 kinase activity on STAT3 in TF1 cells, sequence (P23458 whole entry): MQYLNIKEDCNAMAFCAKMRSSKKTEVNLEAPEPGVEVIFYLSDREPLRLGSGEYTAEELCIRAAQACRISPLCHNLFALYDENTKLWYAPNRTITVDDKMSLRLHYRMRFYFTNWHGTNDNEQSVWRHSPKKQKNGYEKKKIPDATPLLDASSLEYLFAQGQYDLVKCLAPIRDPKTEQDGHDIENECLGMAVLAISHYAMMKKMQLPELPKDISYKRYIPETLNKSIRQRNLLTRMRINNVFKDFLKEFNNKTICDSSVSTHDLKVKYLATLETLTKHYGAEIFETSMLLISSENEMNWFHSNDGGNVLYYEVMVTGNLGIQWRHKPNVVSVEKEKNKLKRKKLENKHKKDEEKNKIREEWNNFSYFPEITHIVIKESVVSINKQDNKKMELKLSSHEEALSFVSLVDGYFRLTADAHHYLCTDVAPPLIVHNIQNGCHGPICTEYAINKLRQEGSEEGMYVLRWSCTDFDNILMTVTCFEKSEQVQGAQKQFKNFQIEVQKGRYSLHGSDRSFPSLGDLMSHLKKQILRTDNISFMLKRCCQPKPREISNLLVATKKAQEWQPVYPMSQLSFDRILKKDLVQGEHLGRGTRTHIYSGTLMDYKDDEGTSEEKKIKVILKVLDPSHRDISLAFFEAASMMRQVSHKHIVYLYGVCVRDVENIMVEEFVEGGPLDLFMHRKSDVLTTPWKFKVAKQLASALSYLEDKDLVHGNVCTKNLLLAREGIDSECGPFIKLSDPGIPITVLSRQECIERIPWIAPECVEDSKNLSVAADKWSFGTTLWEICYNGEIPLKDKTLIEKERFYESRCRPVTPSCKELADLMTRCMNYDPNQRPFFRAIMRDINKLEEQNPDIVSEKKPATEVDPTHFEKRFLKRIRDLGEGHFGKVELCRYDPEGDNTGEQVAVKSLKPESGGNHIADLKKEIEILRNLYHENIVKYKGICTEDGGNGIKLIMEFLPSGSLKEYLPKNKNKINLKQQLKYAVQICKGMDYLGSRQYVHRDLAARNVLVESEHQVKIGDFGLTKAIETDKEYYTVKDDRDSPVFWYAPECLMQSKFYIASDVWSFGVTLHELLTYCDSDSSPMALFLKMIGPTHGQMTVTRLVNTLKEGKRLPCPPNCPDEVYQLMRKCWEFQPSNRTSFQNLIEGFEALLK
Procedure: The inhibitory potency of compounds of the disclosure against the JAK1 kinase activity on STAT3 was evaluated using an MSD-platform plate-based assay format. TF1 cells natively expressing STAT3 and JAK1 were serum-starved to reduce background phosphorylation levels, then cells were treated with compounds of the disclosure for 1 hour with a 10-point four-fold dilution series starting at 10 μM. Cells were then stimulated with 30 ng/mL interleukin 6 (IL-6) for 15 minutes. Cells were lysed and pSTAT3 levels were quantitated using an MSD plate-based assay with anti-STAT3 antibodies. The data were normalized and the percent activity versus log concentration of compound was fitted with a 4-parameter logistic model to generate IC50 curves.

[5] = target: T2, human JAK2 kinase domain (JH1) (Homo sapiens, UniProt O60674); experiment: JH1 biochemical assay for JAK2 (ADP-Glo kinase assay, recombinant JH1 catalytic domain, JAK3-974 peptide, 15 μM ATP)
T2 construct: recombinantly generated catalytic kinase (also known as JH1) domain of human JAK1, JAK2, JAK3 and TYK2
T2 sequence (O60674 849-1124 limits assumed): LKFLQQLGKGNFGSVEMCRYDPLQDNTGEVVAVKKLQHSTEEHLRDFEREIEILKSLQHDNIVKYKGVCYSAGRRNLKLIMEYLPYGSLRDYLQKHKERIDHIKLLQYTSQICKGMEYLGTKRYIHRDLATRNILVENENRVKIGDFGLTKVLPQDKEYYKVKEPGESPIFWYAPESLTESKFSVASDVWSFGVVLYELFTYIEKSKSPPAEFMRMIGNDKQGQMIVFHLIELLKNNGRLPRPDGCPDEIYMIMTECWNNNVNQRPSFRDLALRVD
In short: as §1

[6] = target: T3, human JAK1 kinase domain (JH1) (Homo sapiens, UniProt P23458); experiment: JH1 biochemical assay for JAK1 (ADP-Glo kinase assay, recombinant JH1 catalytic domain, JAK3-342 peptide, 35 μM ATP)
T3 construct: recombinantly generated catalytic kinase (also known as JH1) domain of human JAK1, JAK2, JAK3 and TYK2
T3 sequence (P23458 875-1153 limits assumed): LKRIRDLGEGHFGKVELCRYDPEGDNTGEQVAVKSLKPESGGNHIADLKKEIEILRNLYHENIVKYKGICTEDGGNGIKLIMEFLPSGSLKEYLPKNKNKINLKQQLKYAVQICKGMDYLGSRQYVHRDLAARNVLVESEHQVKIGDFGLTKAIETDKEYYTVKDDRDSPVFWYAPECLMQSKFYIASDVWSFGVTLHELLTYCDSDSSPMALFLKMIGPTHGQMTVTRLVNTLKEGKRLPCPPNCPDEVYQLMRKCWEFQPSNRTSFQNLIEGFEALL
In short: as §1

[7] = target: T4, human TYK2 kinase domain (JH1) (Homo sapiens, UniProt P29597); experiment: JH1 biochemical assay for TYK2 (ADP-Glo kinase assay, recombinant JH1 catalytic domain, JAK3-974 peptide, 10 μM ATP)
T4 construct: recombinantly generated catalytic kinase (also known as JH1) domain of human JAK1, JAK2, JAK3 and TYK2
T4 sequence (P29597 897-1176 limits assumed): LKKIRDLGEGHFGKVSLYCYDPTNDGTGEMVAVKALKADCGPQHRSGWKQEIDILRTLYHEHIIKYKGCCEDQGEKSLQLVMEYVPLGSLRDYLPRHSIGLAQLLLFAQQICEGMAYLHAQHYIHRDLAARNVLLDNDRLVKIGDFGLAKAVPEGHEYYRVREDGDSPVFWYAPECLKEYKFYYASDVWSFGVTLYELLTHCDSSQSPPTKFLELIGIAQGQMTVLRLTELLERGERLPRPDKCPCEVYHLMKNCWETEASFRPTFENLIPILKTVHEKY
In short: as §1

| SMILES | IC50 ([1]; JH1 kinase domain, ADP-Glo) | IC50 [2] | IC50 [3] | IC50 [4] | IC50 ([5]; JH1 kinase domain, ADP-Glo) | IC50 ([6]; JH1 kinase domain, ADP-Glo) | IC50 ([7]; JH1 kinase domain, ADP-Glo) | IC50 ([1]; JAK3 JH1, ADP-Glo) | IC50 ([5]; JAK2 JH1, ADP-Glo) | IC50 ([6]; JAK1 JH1, ADP-Glo) | IC50 ([7]; TYK2 JH1, ADP-Glo) |
| --- | --- | --- | --- | --- | --- | --- | --- | --- | --- | --- | --- |
| Cn1cc(-c2cc3c(N4C[C@@H](C(F)F)[C@@](C#N)(C5CC5)C4=O)ccnn3c2)cn1 (racemic) [Example 153, rac-(3R,4S)-3-cyclopropyl-4-(difluoromethyl)-1-(6-(1-methyl-1H-pyrazol-4-yl)pyrrolo[1,2-b]pyridazin-4-yl)-2-oxopyrrolidine-3-carbonitrile] | 1000 to 5000 nM | > 10000 nM | > 100 nM | > 10000 nM | 1000 to 5000 nM | 100 to 1000 nM | 20 to 50 nM |  |  |  |  |
| C[C@@H]1CN(c2ccnn3cc(-c4cnn(C5CC5(F)F)c4)cc23)C(=O)[C@]1(C#N)C1CC1 (mixture of isomers) [Example 154, (3R,4S)-3-cyclopropyl-1-(6-(1-(2,2-difluorocyclopropyl)-1H-pyrazol-4-yl)pyrrolo[1,2-b]pyridazin-4-yl)-4-methyl-2-oxopyrrolidine-3-carbonitrile] | 100 to 1000 nM | 1000 to 5000 nM | 5 to 20 nM | 1000 to 5000 nM | 100 to 1000 nM | < 100 nM | < 5 nM |  |  |  |  |
| C[C@@H]1CN(c2nc(-c3cnn([C@H]4CO[C@@H]4C)c3)cn3ncc(F)c23)C(=O)[C@]1(C#N)C1CC1 (relative stereo) [Example 306, (3R,4S)-3-cyclopropyl-1-(3-fluoro-6-(1-((2R,3 S)-2-methyloxetan-3-yl)-1H-pyrazol-4-yl)pyrazolo[1,5-a]pyrazin-4-yl)-4-methyl-2-oxopyrrolidine-3-carbonitrile and (3R,4S)-3-cyclopropyl-1-(3-fluoro-6-(1-((2S,3R)-2-methyloxetan-3-yl)-1H-pyrazol-4-yl)pyrazolo[1,5-a]pyrazin-4-yl)-4-methyl-2-oxopyrrolidine-3-carbonitrile] |  | 1000 to 5000 nM | 20 to 50 nM | 100 to 1000 nM |  |  |  | < 100 nM | < 100 nM | < 100 nM | < 5 nM |
| COC[C@@]1(C#N)CCN(c2ccnn3cc(-c4cnn(C)c4)cc23)C1=O (single isomer, unassigned) [Example 40] | 100 to 1000 nM | > 10000 nM | > 100 nM | > 10000 nM | 100 to 1000 nM | 1000 to 5000 nM | 50 to 100 nM |  |  |  |  |
| C[C@@H]1CN(c2ccnn3cc(-c4cnn([C@@H]5CC5(F)F)c4)cc23)C(=O)[C@]1(C#N)C1CC1 (single isomer, unassigned) [Example 155] | 100 to 1000 nM | 1000 to 5000 nM | 50 to 100 nM | 1000 to 5000 nM | 100 to 1000 nM | < 100 nM | < 5 nM |  |  |  |  |
| C[C@@H]1CN(c2ccnn3cc(-c4cnn([C@H]5CC5(F)F)c4)cc23)C(=O)[C@]1(C#N)C1CC1 (single isomer, unassigned) [Example 156] | < 100 nM | 1000 to 5000 nM | 50 to 100 nM | 1000 to 5000 nM | 100 to 1000 nM | 100 to 1000 nM | < 5 nM |  |  |  |  |
| C[C@@H]1CN(c2ccnn3cc(-c4cnn([C@H]5COCC(F)(F)C5)c4)cc23)C(=O)[C@]1(C#N)C1CC1 (single isomer, unassigned) [Example 327] |  | 100 to 1000 nM | 50 to 100 nM | 1000 to 5000 nM |  |  |  | < 100 nM | < 100 nM | < 100 nM | < 5 nM |
| C[C@@H]1CN(c2ccnc3[nH]c(-c4cnn(C)c4)cc23)C(=O)[C@]1(C#N)C1CC1 [Example 1, (3R,4S)-3-cyclopropyl-4-methyl-1-(2-(1-methyl-1H-pyrazol-4-yl)-1H-pyrrolo[2,3-b]pyridin-4-yl)-2-oxopyrrolidine-3-carbonitrile] | < 100 nM | 100 to 1000 nM | 5 to 20 nM | < 100 nM | < 100 nM | < 100 nM | < 5 nM |  |  |  |  |
| COc1cc(-c2cc3c(N4CC[C@@](C#N)(C5CC5)C4=O)ccnc3[nH]2)ccn1 [Example 3, (S)-3-cyclopropyl-1-(2-(2-methoxypyridin-4-yl)-1H-pyrrolo[2,3-b]pyridin-4-yl)-2-oxopyrrolidine-3-carbonitrile] | < 100 nM | 1000 to 5000 nM | 20 to 50 nM | 100 to 1000 nM | < 100 nM | < 100 nM | < 5 nM |  |  |  |  |
| Cn1cc(-c2cc3c(N4CC[C@@](C#N)(C5CC5)C4=O)ccnc3[nH]2)cn1 [Example 4, (S)-3-cyclopropyl-1-(2-(1-methyl-1H-pyrazol-4-yl)-1H-pyrrolo[2,3-b]pyridin-4-yl)-2-oxopyrrolidine-3-carbonitrile] | < 100 nM | 100 to 1000 nM | 20 to 50 nM | 100 to 1000 nM | < 100 nM | < 100 nM | < 5 nM |  |  |  |  |
| COc1cc(-c2cc3c(N4CC[C@](C#N)(C5CC5)C4=O)ccnc3[nH]2)ccn1 [Example 5, (R)-3-cyclopropyl-1-(2-(2-methoxypyridin-4-yl)-1H-pyrrolo[2,3-b]pyridin-4-yl)-2-oxopyrrolidine-3-carbonitrile] | 1000 to 5000 nM | > 10000 nM | > 100 nM | 5000 to 10000 nM | 100 to 1000 nM | 1000 to 5000 nM | > 100 nM |  |  |  |  |
| C[C@@H]1CN(c2ncnc3[nH]c(-c4cnn(C)c4)cc23)C(=O)[C@]1(C#N)C1CC1 [Example 6, (3R,4S)-3-cyclopropyl-4-methyl-1-(6-(1-methyl-1H-pyrazol-4-yl)-7H-pyrrolo[2,3-d]pyrimidin-4-yl)-2-oxopyrrolidine-3-carbonitrile] | 1000 to 5000 nM | > 10000 nM | > 100 nM | > 10000 nM | 1000 to 5000 nM | 1000 to 5000 nM | 50 to 100 nM |  |  |  |  |
| COc1cc(-c2cc3c(N4CC[C@@](C#N)(C5CC5)C4=O)ccnn3c2)ccn1 [Example 8, (S)-3-cyclopropyl-1-(6-(2-methoxypyridin-4-yl)pyrrolo[1,2-b]pyridazin-4-yl)-2-oxopyrrolidine-3-carbonitrile] | 100 to 1000 nM | 1000 to 5000 nM | > 100 nM | 1000 to 5000 nM | 100 to 1000 nM | 100 to 1000 nM | 5 to 20 nM |  |  |  |  |
